# Measured values as given in paper PMC4171664 (Diabetes, 2014).
# pIC50: −log10 of the molar value. No end group written: not given here.
# Biological target: T1, I-A^g7 (Mus musculus, UniProt P04228+Q31135)
# T1 sequence (P04228 24-256): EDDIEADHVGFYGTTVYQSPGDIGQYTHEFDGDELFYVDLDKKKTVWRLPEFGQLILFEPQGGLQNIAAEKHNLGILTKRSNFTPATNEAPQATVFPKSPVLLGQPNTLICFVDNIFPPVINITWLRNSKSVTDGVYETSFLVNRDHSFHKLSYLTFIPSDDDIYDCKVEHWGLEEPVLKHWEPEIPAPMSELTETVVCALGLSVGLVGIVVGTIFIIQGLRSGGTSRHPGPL
# T1 sequence (Q31135 1-263): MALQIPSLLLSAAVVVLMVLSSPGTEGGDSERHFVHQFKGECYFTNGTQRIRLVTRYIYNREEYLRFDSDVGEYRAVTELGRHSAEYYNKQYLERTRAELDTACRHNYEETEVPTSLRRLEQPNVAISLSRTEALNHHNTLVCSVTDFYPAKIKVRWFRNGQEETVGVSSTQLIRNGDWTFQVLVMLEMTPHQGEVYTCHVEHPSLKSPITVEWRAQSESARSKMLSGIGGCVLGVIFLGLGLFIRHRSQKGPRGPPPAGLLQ
# Format: binding, NOD mouse
row,Sequence,pIC50
1,GHVAGSLAILTDAA [91–104],6.22
2,AVDGVISVHSLHIW [292–305],5.29
3,GYNHKDVQANASVR [201–214],4.05
4,LTIQIESAADQDPSC [345–359],5.96
5,SVRAAFVHALGDVF [212–225],6.22
6,RTGIAQALSSFDLHS [330–344],5.24
